This note sets out measurements from ChEMBL document CHEMBL1150005, “Reduced amide bond neurotensin 813 mimetics with potent in vivo activity” (Bioorg Med Chem Lett, 1995).

In assay [1] the test system is HT-29. The assay is described as follows: Compound was tested in vitro to mobilize calcium from HT-29 cells. Type of assay: functional, cell-based. The following applies: Homo sapiens.
Assay [2] relates to Mus musculus. Nature of the assay: Analgesic activity was evaluated in the acetic acid induced stretching paradigm after subcutaneous administration. The following applies: sc. Type of assay: functional.
The test system of assay [3] is Mus musculus. The assay is described as follows: Compound was tested in vivo for its ability to inhibit spontaneous locomotor activity of mice; intraperitoneal administration. Type of assay: functional. The following applies: ip.
Assay [4] concerns the target T1, Neurotensin receptor type 1 (Mus musculus, UniProt O88319). The assay is described as follows: Binding affinity for Neurotensin Receptor.
Assay [5] concerns Mus musculus. The assay is described as follows: Compound was tested in vivo for its ability to inhibit spontaneous locomotor activity of mice after intraperitoneal administration. The assay is classed as functional. To be noted: ip.
The target in assay [6] is T1, Neurotensin receptor type 1. Nature of the assay: Compound was tested in vitro for its binding affinity against Neurotensin Receptor […].
The test system of assay [7] is Mus musculus. Nature of the assay: Compound was tested in vivo for its ability to inhibit spontaneous locomotor activity of mice after intracerebroventricular administration. Type of assay: functional. To be noted: central.

Molecules are shown by their SMILES. Numbered stars: 1 amine (or outer) side, 2 acyl side, 3 side chain; on linkers, the order of the positions; unused ones are H or OH. Square brackets hold non-standard residues; d marks the D form. Peptide text beside a SMILES is read from it. * marks the point of attachment. X3 = NCCCC[C@@H](C(=O)[*:2])N(C[C@@H](N)CCCN=C(N)N)[*:1]; X1 = NCCCC[C@H](N)CN([C@@H](CCCCN)C(=O)[*:2])[*:1]; X2 = NCCCCCCN([C@@H](CCCCN)C(=O)[*:2])[*:1]; X6 = N=C(N)NCCCC(CCCNC(=N)N)C(=O)*; X7 = NC(N)=NCCCC(CCCN=C(N)N)C(=O)*; NMeR = CN[C@@H](CCCNC(=N)N)C(=O)O; Tle = CC(C)(C)[C@H](N)C(=O)O; X4 = NCCCCC(CCCCN)C(=O)*; X5 = NCCCC(CCCN)C(=O)*

T1 sequence (O88319 whole entry): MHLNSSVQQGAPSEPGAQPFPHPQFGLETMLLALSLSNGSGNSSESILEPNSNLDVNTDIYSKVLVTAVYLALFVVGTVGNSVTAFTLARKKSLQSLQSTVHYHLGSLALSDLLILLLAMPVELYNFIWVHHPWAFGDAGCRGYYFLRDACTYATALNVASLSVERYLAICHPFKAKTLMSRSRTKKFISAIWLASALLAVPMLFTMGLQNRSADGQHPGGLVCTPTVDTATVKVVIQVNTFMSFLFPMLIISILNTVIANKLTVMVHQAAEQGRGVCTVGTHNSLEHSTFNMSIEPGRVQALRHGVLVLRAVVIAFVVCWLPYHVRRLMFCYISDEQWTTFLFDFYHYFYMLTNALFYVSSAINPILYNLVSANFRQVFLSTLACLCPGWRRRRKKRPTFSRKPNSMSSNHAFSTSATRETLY

`CC[C@H](C)[C@H](NC(=O)[C@H](Cc1ccc(O)cc1)NC(=O)[C@@H]1CCCN1C(=O)[C@H](CCCNC(=N)N)NC(=O)[C@@H](N)CCCNC(=N)N)C(=O)N[C@@H](CC(C)C)C(=O)O` [listing 1 of 2 here]: in assay [1], the concentration for a half-maximal effect (EC50) turned out to be 4.21 nM.

In the case of `CC[C@H](C)[C@H](NC(=O)[C@H](Cc1ccc(O)cc1)NC(=O)[C@@H]1CCCN1C(=O)[C@H](CCCNC(=N)N)NC(=O)[C@@H](N)CCCNC(=N)N)C(=O)N[C@@H](CC(C)C)C(=O)O` [listing 2 of 2 here], the ED50 in assay [2] and in assay [3] was above 10 mg/kg in each case.

In assay [4], `CC(C)C[C@H](NC(=O)[C@@H](NC(=O)[C@H](Cc1c[nH]c2ccccc12)NC(=O)[C@@H]1CCCN1C(=O)[C@@H](N)CCCCN)C(C)(C)C)C(=O)O` (H-KPW[Tle]L-OH) returned an inhibition constant (Ki) of 60 nM. This compound also came in with an ED50 in assay [5] above 10 mg/kg.

In turn, `CN[C@@H](CCCNC(=N)N)C(=O)N[C@@H](CCCCN)C(=O)N1CCC[C@H]1C(=O)N[C@@H](Cc1c[nH]c2ccccc12)C(=O)N[C@H](C(=O)N[C@@H](CC(C)C)C(=O)O)C(C)(C)C` (H-[NMeR]KPW[Tle]L-OH) came in with an inhibition constant Ki in assay [6] of 0.064 nM.

As for `CC[C@H](C)[C@H](NC(=O)[C@H](Cc1c[nH]c2ccccc12)NC(=O)[C@@H]1CCCN1C(=O)[C@H](CCCCN)NC[C@@H](N)CCCCN)C(=O)N[C@@H](CC(C)C)C(=O)O` (H-[X1]PWIL-OH) [listing 1 of 2 here], the EC50 in assay [1] was determined as 110 nM. In addition, the Ki in assay [4] was 0.06 nM.

Consider `CC[C@H](C)[C@H](NC(=O)[C@H](Cc1c[nH]c2ccccc12)NC(=O)[C@@H]1CCCN1C(=O)[C@H](CCCCN)NC[C@@H](N)CCCCN)C(=O)N[C@@H](CC(C)C)C(=O)O` (H-[X1]PWIL-OH) [listing 2 of 2 here], for which the ED50 in assay [5] came to 6.3 mg/kg.

Take `CCOC(=O)[C@H](CC(C)C)NC(=O)[C@@H](NC(=O)[C@H](Cc1c[nH]c2ccccc12)NC(=O)[C@@H]1CCCN1C(=O)[C@H](CCCCN)NC[C@@H](N)CCCCN)C(C)(C)C` (H-[X1]PW[Tle]L-OEt) [listing 1 of 2 here]: the EC50 in assay [1] is 4500 nM. The affinity in assay [4], expressed as Ki, was 31.2 nM.

In assay [5], `CCOC(=O)[C@H](CC(C)C)NC(=O)[C@@H](NC(=O)[C@H](Cc1c[nH]c2ccccc12)NC(=O)[C@@H]1CCCN1C(=O)[C@H](CCCCN)NC[C@@H](N)CCCCN)C(C)(C)C` (H-[X1]PW[Tle]L-OEt) [listing 2 of 2 here] displayed an ED50 of 0.21 mg/kg.

Regarding `CC(C)C[C@H](NC(=O)[C@@H](NC(=O)[C@H](Cc1c[nH]c2ccccc12)NC(=O)[C@@H]1CCCN1C(=O)[C@H](CCCCN)NC[C@@H](N)CCCCN)C(C)(C)C)C(=O)O` (H-[X1]PW[Tle]L-OH) [listing 1 of 2 here], the concentration giving a half-maximal response (EC50) in assay [1] turned out to be 362 nM. The compound also came in with a Ki in assay [4] of 1.13 nM.

Regarding `CC(C)C[C@H](NC(=O)[C@@H](NC(=O)[C@H](Cc1c[nH]c2ccccc12)NC(=O)[C@@H]1CCCN1C(=O)[C@H](CCCCN)NC[C@@H](N)CCCCN)C(C)(C)C)C(=O)O` (H-[X1]PW[Tle]L-OH) [listing 2 of 2 here], the ED50 in assay [5] worked out at 0.14 mg/kg.

Take `CC[C@H](C)[C@H](NC(=O)[C@H](Cc1ccc(O)cc1)NC(=O)[C@@H]1CCCN1C(=O)[C@H](CCCCN)NC[C@@H](N)CCCCN)C(=O)N[C@@H](CC(C)C)C(=O)O` (H-[X1]PYIL-OH) [listing 1 of 2 here]: in assay [4], affinity was put at a Ki of 0.15 nM.

`CC[C@H](C)[C@H](NC(=O)[C@H](Cc1ccc(O)cc1)NC(=O)[C@@H]1CCCN1C(=O)[C@H](CCCCN)NC[C@@H](N)CCCCN)C(=O)N[C@@H](CC(C)C)C(=O)O` (H-[X1]PYIL-OH) [listing 2 of 2 here] showed a 50% effective dose (ED50) in assay [5] above 10 mg/kg.

As to `CC(C)C[C@H](NC(=O)[C@@H](NC(=O)[C@H](Cc1ccc(O)cc1)NC(=O)[C@@H]1CCCN1C(=O)[C@H](CCCCN)NC[C@@H](N)CCCCN)C(C)(C)C)C(=O)O` (H-[X1]PY[Tle]L-OH) [listing 1 of 2 here], the EC50 in assay [1] was 512 nM. For the same compound, the affinity in assay [4], expressed as Ki, was 0.4 nM.

`CC(C)C[C@H](NC(=O)[C@@H](NC(=O)[C@H](Cc1ccc(O)cc1)NC(=O)[C@@H]1CCCN1C(=O)[C@H](CCCCN)NC[C@@H](N)CCCCN)C(C)(C)C)C(=O)O` (H-[X1]PY[Tle]L-OH) [listing 2 of 2 here] yielded a median effective dose (ED50) in assay [5] of 0.9 mg/kg.

The compound `CCOC(=O)[C@H](CC(C)C)NC(=O)[C@@H](NC(=O)[C@H](Cc1c[nH]c2ccccc12)NC(=O)[C@@H]1CCCN1C(=O)[C@H](CCCCN)NCCCCCCN)C(C)(C)C` (H-[X2]PW[Tle]L-OEt) [listing 1 of 2 here] yielded an inhibitory constant (Ki) in assay [4] of 27 nM.

In the case of `CCOC(=O)[C@H](CC(C)C)NC(=O)[C@@H](NC(=O)[C@H](Cc1c[nH]c2ccccc12)NC(=O)[C@@H]1CCCN1C(=O)[C@H](CCCCN)NCCCCCCN)C(C)(C)C` (H-[X2]PW[Tle]L-OEt) [listing 2 of 2 here], the figures for the ED50 in assay [2] and in assay [3] were 0.05 mg/kg and 0.3 mg/kg, respectively.

In assay [4], `CCOC(=O)[C@H](CC(C)C)NC(=O)[C@@H](NC(=O)[C@H](Cc1c[nH]c2ccccc12)NC(=O)[C@@H]1CCCN1C(=O)[C@H](CCCCN)NC[C@@H](N)CCCN=C(N)N)C(C)(C)C` (H-[X3]PW[Tle]L-OEt) [listing 1 of 2 here] registered a Ki of 437 nM.

Consider `CCOC(=O)[C@H](CC(C)C)NC(=O)[C@@H](NC(=O)[C@H](Cc1c[nH]c2ccccc12)NC(=O)[C@@H]1CCCN1C(=O)[C@H](CCCCN)NC[C@@H](N)CCCN=C(N)N)C(C)(C)C` (H-[X3]PW[Tle]L-OEt) [listing 2 of 2 here], for which the results for the median effective dose (ED50) in assay [3] and in assay [7] were 0.15 mg/kg and 1.6 mg/kg, respectively.

Take `CC(C)C[C@H](NC(=O)[C@@H](NC(=O)[C@H](Cc1c[nH]c2ccccc12)NC(=O)[C@@H]1CCCN1C(=O)[C@H](CCCCN)NC[C@@H](N)CCCN=C(N)N)C(C)(C)C)C(=O)O` (H-[X3]PW[Tle]L-OH) [listing 1 of 2 here]: the affinity in assay [4], expressed as Ki, was 17.1 nM.

As to `CC(C)C[C@H](NC(=O)[C@@H](NC(=O)[C@H](Cc1c[nH]c2ccccc12)NC(=O)[C@@H]1CCCN1C(=O)[C@H](CCCCN)NC[C@@H](N)CCCN=C(N)N)C(C)(C)C)C(=O)O` (H-[X3]PW[Tle]L-OH) [listing 2 of 2 here], the ED50 in assay [2] turned out to be 0.3 mg/kg; in assay [3], 0.48 mg/kg.

`CC(C)C[C@H](NC(=O)[C@@H](NC(=O)[C@H](Cc1c[nH]c2ccccc12)NC(=O)[C@@H]1CCCN1C(=O)C(CCCCN)CCCCN)C(C)(C)C)C(=O)O` (X4-PW[Tle]L-OH) [listing 1 of 2 here] registered a Ki in assay [4] of 3.8 nM.

For `CC(C)C[C@H](NC(=O)[C@@H](NC(=O)[C@H](Cc1c[nH]c2ccccc12)NC(=O)[C@@H]1CCCN1C(=O)C(CCCCN)CCCCN)C(C)(C)C)C(=O)O` (X4-PW[Tle]L-OH) [listing 2 of 2 here], the 50% effective dose (ED50) in assay [5] amounted to 0.6 mg/kg.

In assay [4], `CC(C)C[C@H](NC(=O)[C@@H](NC(=O)[C@H](Cc1c[nH]c2ccccc12)NC(=O)[C@@H]1CCCN1C(=O)C(CCCN)CCCN)C(C)(C)C)C(=O)O` (X5-PW[Tle]L-OH) [listing 1 of 2 here] came in with a Ki of 17 nM.

Turning to `CC(C)C[C@H](NC(=O)[C@@H](NC(=O)[C@H](Cc1c[nH]c2ccccc12)NC(=O)[C@@H]1CCCN1C(=O)C(CCCN)CCCN)C(C)(C)C)C(=O)O` (X5-PW[Tle]L-OH) [listing 2 of 2 here], the 50% effective dose (ED50) in assay [5] was found to be 0.5 mg/kg.

In turn, `CC(C)C[C@H](NC(=O)[C@@H](NC(=O)[C@H](Cc1c[nH]c2ccccc12)NC(=O)[C@@H]1CCCN1C(=O)C(CCCNC(=N)N)CCCNC(=N)N)C(C)(C)C)C(=O)O` (stereo partly drawn) (X6-PW[Tle]L-OH) had an inhibition constant Ki in assay [4] of 0.1 nM.

In turn, `CC(C)C[C@H](NC(=O)[C@@H](NC(=O)[C@H](Cc1c[nH]c2ccccc12)NC(=O)[C@@H]1CCCN1C(=O)C(CCCN=C(N)N)CCCN=C(N)N)C(C)(C)C)C(=O)O` (X7-PW[Tle]L-OH) had a 50% effective dose (ED50) in assay [5] of 1.5 mg/kg.
